In the data set the test system is CCRIS mutagenicity, Ames/micronucleus/aberration tests. Put plainly: CCRIS mutagenicity studies.
[1] abbreviates: Test System: AMES SALMONELLA TYPHIMURIUM, Strain/Indicator: TA97, Metabolic Activation: HAMSTER, LIVER, S-9, AROCLOR 1254 (10 OR 30%), Method: PREINCUBATION
Where [2] appears, read: Test System: AMES SALMONELLA TYPHIMURIUM, Strain/Indicator: TA97, Metabolic Activation: NONE, Method: PREINCUBATION
Where [3] appears, read: Test System: AMES SALMONELLA TYPHIMURIUM, Strain/Indicator: TA98, Metabolic Activation: NONE, Method: PREINCUBATION
Setting [4] is: Test System: AMES SALMONELLA TYPHIMURIUM, Strain/Indicator: TA100, Metabolic Activation: HAMSTER, LIVER, S-9, AROCLOR 1254 (10%), Method: PREINCUBATION
[5] abbreviates: Test System: AMES SALMONELLA TYPHIMURIUM, Strain/Indicator: TA100, Metabolic Activation: HAMSTER, LIVER, S-9, AROCLOR 1254 (30%), Method: PREINCUBATION
[6] abbreviates: Test System: AMES SALMONELLA TYPHIMURIUM, Strain/Indicator: TA100, Metabolic Activation: NONE, Method: PREINCUBATION
Where [7] appears, read: Test System: AMES SALMONELLA TYPHIMURIUM, Strain/Indicator: TA100, Metabolic Activation: RAT, LIVER, S-9, AROCLOR 1254 (10%), Method: PREINCUBATION
Where [8] appears, read: Test System: AMES SALMONELLA TYPHIMURIUM, Strain/Indicator: TA100, Metabolic Activation: RAT, LIVER, S-9, AROCLOR 1254 (30%), Method: PREINCUBATION
Setting [9] is: Test System: AMES SALMONELLA TYPHIMURIUM, Strain/Indicator: TA1535, Metabolic Activation: HAMSTER, LIVER, S-9, AROCLOR 1254 (10 OR 30%), Method: PREINCUBATION
Where [10] appears, read: Test System: AMES SALMONELLA TYPHIMURIUM, Strain/Indicator: TA1535, Metabolic Activation: NONE, Method: PREINCUBATION
The mark [11] stands for this setting: Test System: AMES SALMONELLA TYPHIMURIUM, Strain/Indicator: TA1535, Metabolic Activation: RAT, LIVER, S-9, AROCLOR 1254 (10 OR 30%), Method: PREINCUBATION

Activity calls are given as the source filed them. The rule behind the calls is not given here.

As to `CCCCCCCCCCCCCC(=O)O`, the mutagenic call is “inactive; negative” under setting [1]; “inactive; negative” under setting [2]; “inactive; negative” (Test System: AMES SALMONELLA TYPHIMURIUM, Strain/Indicator: TA97, Metabolic Activation: RAT, LIVER, S-9, AROCLOR 1254 (10%), Method: PREINCUBATION); “inactive; negative” (Test System: AMES SALMONELLA TYPHIMURIUM, Strain/Indicator: TA97, Metabolic Activation: RAT, LIVER, S-9, AROCLOR 1254 (30%), Method: PREINCUBATION); “inactive; negative” (Test System: AMES SALMONELLA TYPHIMURIUM, Strain/Indicator: TA98, Metabolic Activation: HAMSTER, LIVER, S-9, AROCLOR 1254 (10 OR 30%), Method: PREINCUBATION); “inactive; negative” under setting [3]. The mutagenic call is, setting by setting: (Test System: AMES SALMONELLA TYPHIMURIUM, Strain/Indicator: TA98, Metabolic Activation: RAT LIVER S-9, PHENOBARBITAL AND BETA-NAPHTHOFLAVONE, Method: PREINCUBATION) “inactive; negative”; (Test System: AMES SALMONELLA TYPHIMURIUM, Strain/Indicator: TA98, Metabolic Activation: RAT, LIVER, S-9, AROCLOR 1254 (10 OR 30%), Method: PREINCUBATION) “inactive; negative”; under setting [4], “inactive; negative”; under setting [5], “inactive; negative”; under setting [6], “inactive; negative”; (Test System: AMES SALMONELLA TYPHIMURIUM, Strain/Indicator: TA100, Metabolic Activation: RAT LIVER S-9, PHENOBARBITAL AND BETA-NAPHTHOFLAVONE, Method: PREINCUBATION) “inactive; negative”. Besides, the mutagenic call is, setting by setting: under setting [7], “inactive; negative”; under setting [8], “inactive; negative”; under setting [9], “inactive; negative”; under setting [10], “inactive; negative”; under setting [11], “inactive; negative”; (Test System: AMES SALMONELLA TYPHIMURIUM, Strain/Indicator: TA1537, Metabolic Activation: HAMSTER, LIVER, S-9, AROCLOR 1254 (10 OR 30%), Method: PREINCUBATION) “inactive; negative”. For the same molecule, the mutagenic call is “inactive; negative” (Test System: AMES SALMONELLA TYPHIMURIUM, Strain/Indicator: TA1537, Metabolic Activation: NONE, Method: PREINCUBATION); “inactive; negative” (Test System: AMES SALMONELLA TYPHIMURIUM, Strain/Indicator: TA1537, Metabolic Activation: RAT LIVER S-9, PHENOBARBITAL AND BETA-NAPHTHOFLAVONE, Method: PREINCUBATION); “inactive; negative” (Test System: AMES SALMONELLA TYPHIMURIUM, Strain/Indicator: TA1537, Metabolic Activation: RAT, LIVER, S-9, AROCLOR 1254 (10 OR 30%), Method: PREINCUBATION); “inactive; negative” (Test System: E.COLI, Strain/Indicator: WP2UVRA/PKM101, Metabolic Activation: NONE, Method: PREINCUBATION); “inactive; negative” (Test System: E.COLI, Strain/Indicator: WP2UVRA/PKM101, Metabolic Activation: RAT LIVER S-9, PHENOBARBITAL AND BETA-NAPHTHOFLAVONE, Method: PREINCUBATION).

With `CCCCCc1cc(O)cc(O)c1`, the mutagenic call under setting [1] was “inactive; negative”; the mutagenic call under setting [2] is “inactive; negative”; the mutagenic call (Test System: AMES SALMONELLA TYPHIMURIUM, Strain/Indicator: TA97, Metabolic Activation: RAT, LIVER, S-9, AROCLOR 1254 (10 OR 30%), Method: PREINCUBATION) was “inactive; negative”; the mutagenic call (Test System: AMES SALMONELLA TYPHIMURIUM, Strain/Indicator: TA98, Metabolic Activation: HAMSTER, LIVER, S-9, AROCLOR 1254 (10%), Method: PREINCUBATION) was “inactive; negative”; the mutagenic call (Test System: AMES SALMONELLA TYPHIMURIUM, Strain/Indicator: TA98, Metabolic Activation: HAMSTER, LIVER, S-9, AROCLOR 1254 (30%), Method: PREINCUBATION) is “inactive; negative”; the mutagenic call under setting [3] was “inactive; negative”. In addition, the mutagenic call (Test System: AMES SALMONELLA TYPHIMURIUM, Strain/Indicator: TA98, Metabolic Activation: RAT, LIVER, S-9, AROCLOR 1254 (10%), Method: PREINCUBATION) is “inactive; negative”; the mutagenic call (Test System: AMES SALMONELLA TYPHIMURIUM, Strain/Indicator: TA98, Metabolic Activation: RAT, LIVER, S-9, AROCLOR 1254 (30%), Method: PREINCUBATION) was “inactive; negative”; the mutagenic call under setting [4] is “inactive; negative”; the mutagenic call under setting [5] is “inactive; negative”; the mutagenic call under setting [6] is “inactive; negative”; the mutagenic call under setting [7] was “inactive; negative”. Moreover, the mutagenic call under setting [8] was “inactive; negative”, the mutagenic call under setting [9] was “inactive; negative”, the mutagenic call under setting [10] was “inactive; negative” and the mutagenic call under setting [11] was “inactive; negative”.

`O=C1OC(CN2CCOCC2)CN1/N=C/c1ccc([N+](=O)[O-])o1` (configuration not stated): the mutagenic call by setting is: (Test System: E. COLI, Strain/Indicator: WP2, Metabolic Activation: NONE, Method: SPOT) “active; positive”; (Test System: E. COLI, Strain/Indicator: WP2 UVRA, Metabolic Activation: NONE, Method: SPOT) “active; positive”; (Test System: E. COLI, Strain/Indicator: WP2 UVRA, Metabolic Activation: NONE, Method: STANDARD PLATE) “active; positive”.

For the origin of these results see PubChem BioAssay AID1259407 (Chemical Carcinogenesis Research Information System (CCRIS), 2018).
